Experimental data as given in PubChem BioAssay AID248 (DTP/NCI, 2004).
Values joined by “and” are separate entries in the source; they are usually repeats but may differ in a detail not shown here. Identical values can stand only once. Inconclusive results and toxic doses are left out. No stated cut-off is given here; in the data, active means T/C of 150% or more; inactive means T/C below 125%.

System: L1210 leukemia ip in BDF1 mice, survival T/C
Test: NCI In Vivo Anticancer Drug Screen. Data for tumor model L1210 Leukemia (intraperitoneal) in B6D2F1 (BDF1) mice
Conditions: endpoint: mean survival time, higher = longer survival
Procedure, shortened: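 Tumor was transplanted into mice, which were then dosed with test compound or vehicle alone. Survival was recorded for each group, and the treated figure was expressed relative to the control figure.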

[1] = dose: 100.0 mg/kg/injection, schedule: Q04DX003 (ip), vehicle: saline with Tween-80
[2] = dose: 50.0 mg/kg/injection, schedule: Q01DX001 (ip), vehicle: carboxymethylcellulose (CMC)
[3] = dose: 100.0 mg/kg/injection, schedule: Q01DX001 (ip), vehicle: carboxymethylcellulose (CMC)
[4] = dose: 150.0 mg/kg/injection, schedule: Q01DX001 (ip), vehicle: carboxymethylcellulose (CMC)
[5] = dose: 200.0 mg/kg/injection, schedule: Q01DX001 (ip), vehicle: carboxymethylcellulose (CMC)
[6] = dose: 400.0 mg/kg/injection, schedule: Q01DX001 (ip), vehicle: carboxymethylcellulose (CMC)
[7] = dose: 100.0 mg/kg/injection, schedule: Q01DX009 (ip), vehicle: Klucel (hydroxypropylcellulose) (HPC)
[8] = dose: 200.0 mg/kg/injection, schedule: Q01DX009 (ip), vehicle: Klucel (hydroxypropylcellulose) (HPC)
[9] = dose: 400.0 mg/kg/injection, schedule: Q01DX009 (ip), vehicle: Klucel (hydroxypropylcellulose) (HPC)
[10] = dose: 100.0 mg/kg/injection, schedule: Q01DX001 (ip), vehicle: saline
[11] = dose: 200.0 mg/kg/injection, schedule: Q01DX001 (ip), vehicle: saline
[12] = dose: 400.0 mg/kg/injection, schedule: Q01DX001 (ip), vehicle: saline
[13] = dose: 50.0 mg/kg/injection, schedule: Q01DX001 (ip), vehicle: saline
[14] = dose: 50.0 mg/kg/injection, schedule: Q01DX009 (ip), vehicle: saline with Tween-80
[15] = dose: 50.0 mg/kg/injection, schedule: Q01DX009 (ip), vehicle: Klucel (hydroxypropylcellulose) (HPC)

Measured: T/C

CCCCCC(C)O[Si](C)Oc1ccccc1 (configuration not stated)
inactive: [1] 100 % of control | dose: 200.0 mg/kg/injection, schedule: Q04DX003 (ip), vehicle: saline with Tween-80 100 % of control | dose: 400.0 mg/kg/injection, schedule: Q04DX003 (ip), vehicle: saline with Tween-80 91 % of control

O=C(CN1CCCCC1)N1CCN(C(=O)CN2CCCCC2)CC1
inactive: dose: 44.0 mg/kg/injection, schedule: Q01DX001 (ip), vehicle: carboxymethylcellulose (CMC) 98 % of control and 100 % of control | [2] 103 % of control | dose: 67.0 mg/kg/injection, schedule: Q01DX001 (ip), vehicle: carboxymethylcellulose (CMC) 87 % of control and 91 % of control | [3] 96 % of control | [4] 91 % of control | [5] 113 % of control | [6] 103 % of control

CCN(CCCCO)CCc1c[nH]c2ccc(OC)cc12
inactive: dose: 4.68 mg/kg/injection, schedule: Q01DX009 (ip), vehicle: saline 98 % of control | dose: 9.37 mg/kg/injection, schedule: Q01DX009 (ip), vehicle: saline 106 % of control | dose: 18.75 mg/kg/injection, schedule: Q01DX009 (ip), vehicle: saline 96 % of control | dose: 18.75 mg/kg/injection, schedule: Q04DX003 (ip), vehicle: saline 112 % of control | dose: 37.5 mg/kg/injection, schedule: Q01DX009 (ip), vehicle: saline 104 % of control | dose: 37.5 mg/kg/injection, schedule: Q04DX003 (ip), vehicle: saline 101 % of control | dose: 75.0 mg/kg/injection, schedule: Q01DX009 (ip), vehicle: saline 95 % of control | dose: 75.0 mg/kg/injection, schedule: Q04DX003 (ip), vehicle: saline 106 % of control | dose: 150.0 mg/kg/injection, schedule: Q01DX009 (ip), vehicle: saline 109 % of control

Nc1nc2c(ncn2C2OC(COP(=O)(O)OC3C(COP(=O)(O)O)OC(n4cnc5c(=O)[nH]c(N)nc54)C3O)C(O)C2O)c(=O)[nH]1 (configuration not stated) (tested in a mixture with another compound)
inactive: dose: 2.5 mg/kg/injection, schedule: Q01DX009 (ip), vehicle: other 108 % of control | dose: 5.0 mg/kg/injection, schedule: Q01DX009 (ip), vehicle: other 105 % of control | dose: 10.0 mg/kg/injection, schedule: Q01DX009 (ip), vehicle: other 111 % of control

Nc1ccc(C(=O)C(=O)c2ccc(N)cc2)cc1
inactive: dose: 75.0 mg/kg/injection, schedule: Q01DX001 (ip), vehicle: acetone 102 % of control | dose: 150.0 mg/kg/injection, schedule: Q01DX001 (ip), vehicle: acetone 94 % of control

Nc1ccc(C(=O)Nc2ccc(Nc3ccncc3)cc2)c([N+](=O)[O-])c1
inactive: dose: 100.0 mg/kg/injection, schedule: Q01DX009 (ip), vehicle: saline 97 % of control | dose: 100.0 mg/kg/injection, schedule: Q04DX003 (ip), vehicle: saline 100 % of control | dose: 200.0 mg/kg/injection, schedule: Q01DX009 (ip), vehicle: saline 104 % of control | dose: 200.0 mg/kg/injection, schedule: Q04DX003 (ip), vehicle: saline 96 % of control | dose: 400.0 mg/kg/injection, schedule: Q01DX009 (ip), vehicle: saline 106 % of control | dose: 400.0 mg/kg/injection, schedule: Q04DX003 (ip), vehicle: saline 100 % of control

CC/C(C)=N\NC(=O)CC(=O)N/N=C(/C)CC
inactive: [7] 95 % of control | [8] 101 % of control | [9] 100 % of control

CNc1ccc(Nc2cc(S(=O)(=O)O)c(N)c3c2C(=O)c2ccccc2C3=O)cc1
inactive: [10] 110 % of control | [11] 98 % of control | [12] 93 % of control

CC1=CCC(=O)O1
inactive: [13] 100 % of control | [14] 94 % of control | [10] 100 % of control | dose: 100.0 mg/kg/injection, schedule: Q01DX009 (ip), vehicle: saline with Tween-80 97 % of control | [11] 97 % of control | dose: 200.0 mg/kg/injection, schedule: Q01DX009 (ip), vehicle: saline with Tween-80 94 % of control | [12] 97 % of control

O=C(O)c1cc(Br)ccc1Br
inactive: dose: 100.0 mg/kg/injection, schedule: Q04DX002 (ip), vehicle: saline with Tween-80 102 % of control | dose: 200.0 mg/kg/injection, schedule: Q04DX002 (ip), vehicle: saline with Tween-80 110 % of control | dose: 400.0 mg/kg/injection, schedule: Q04DX002 (ip), vehicle: saline with Tween-80 105 % of control

CC1=C(C)C23OCC(CO2)CC3=C(C)C1=O
inactive: dose: 100.0 mg/kg/injection, schedule: Q01DX001 (ip), vehicle: saline with Tween-80 93 % of control | dose: 200.0 mg/kg/injection, schedule: Q01DX001 (ip), vehicle: saline with Tween-80 122 % of control | dose: 400.0 mg/kg/injection, schedule: Q01DX001 (ip), vehicle: saline with Tween-80 104 % of control

Cc1[nH]c2ccccc2c1C(Cc1ccccc1N)c1c(C)[nH]c2ccccc12
inactive: [13] 101 % of control | [10] 104 % of control | [11] 101 % of control | [12] 104 % of control

Cc1ccc(NC(=S)/C(=C(\[O-])c2ccc([N+](=O)[O-])cc2)[n+]2ccc(C(C)C)cc2)c(C)c1
inactive: [7] 101 % of control | [8] 98 % of control | [9] 101 % of control

C1=C2CCCCC2OC1 (configuration not stated)
inactive: dose: 75.0 mg/kg/injection, schedule: Q01DX001 (ip), vehicle: carboxymethylcellulose (CMC) 97 % of control | [4] 98 % of control

COc1ccc(CCNC2CC3CCC2(C)C3(C)C)cc1OC (configuration not stated)
inactive: [10] 100 % of control and 107 % of control | [11] 96 % of control | [12] 96 % of control

O=C1c2ccccc2C(=O)c2c1ccc1c2CCCC1
inactive: [15] 91 % of control | [7] 94 % of control | [8] 100 % of control

O=C(OCC(O)C(O)C(O)C(O)COC(=O)c1ccccc1)c1ccccc1 (configuration not stated)
inactive: [3] 98 % of control | [5] 95 % of control | [6] 95 % of control

Clc1ccc(-c2ncc3cnccn23)cc1Cl
inactive: dose: 25.0 mg/kg/injection, schedule: Q01DX009 (ip), vehicle: saline with Tween-80 92 % of control | dose: 25.0 mg/kg/injection, schedule: Q04DX003 (ip), vehicle: saline with Tween-80 96 % of control | [14] 96 % of control | dose: 50.0 mg/kg/injection, schedule: Q04DX003 (ip), vehicle: saline with Tween-80 103 % of control | [1] 94 % of control and 96 % of control

O=S1(=O)c2ccccc2C2CC=CCC21 (configuration not stated)
inactive: [2] 98 % of control | [3] 98 % of control | [5] 98 % of control | [6] 93 % of control

Cc1ccc2cc3c(cc(C)c4ccccc43)c3c2c1CC3
inactive: [10] 102 % of control | [11] 96 % of control | [12] 96 % of control

O=C1OCC(CN2CC3CCC(CC3)C2)=C1c1ccccc1
inactive: dose: 100.0 mg/kg/injection, schedule: Q01DX001 (ip), vehicle: Klucel (hydroxypropylcellulose) (HPC) 94 % of control | dose: 200.0 mg/kg/injection, schedule: Q01DX001 (ip), vehicle: Klucel (hydroxypropylcellulose) (HPC) 102 % of control | dose: 400.0 mg/kg/injection, schedule: Q01DX001 (ip), vehicle: Klucel (hydroxypropylcellulose) (HPC) 94 % of control

CCCCCC(=O)N1CCCCC1
inactive: dose: 25.0 mg/kg/injection, schedule: Q01DX009 (ip), vehicle: Klucel (hydroxypropylcellulose) (HPC) 93 % of control | [15] 96 % of control | [7] 94 % of control

CC#CC#C/C=C1/C=CC(=O)O1
inactive: dose: 6.25 mg/kg/injection, schedule: Q01DX009 (ip), vehicle: saline 98 % of control | dose: 6.25 mg/kg/injection, schedule: Q04DX003 (ip), vehicle: saline 96 % of control | dose: 12.5 mg/kg/injection, schedule: Q01DX009 (ip), vehicle: saline 105 % of control | dose: 12.5 mg/kg/injection, schedule: Q04DX003 (ip), vehicle: saline 103 % of control | dose: 25.0 mg/kg/injection, schedule: Q01DX009 (ip), vehicle: saline 94 % of control | dose: 25.0 mg/kg/injection, schedule: Q04DX003 (ip), vehicle: saline 91 % of control

CCCCCCNP(=O)(OCC)OCC
inactive: [2] 95 % of control | [3] 93 % of control | [5] 101 % of control

CC(C)[N+](=O)[O-]
inactive: dose: 62.5 mg/kg/injection, schedule: Q01DX001 (ip), vehicle: Klucel (hydroxypropylcellulose) (HPC) 104 % of control | dose: 125.0 mg/kg/injection, schedule: Q01DX001 (ip), vehicle: Klucel (hydroxypropylcellulose) (HPC) 114 % of control | dose: 250.0 mg/kg/injection, schedule: Q01DX001 (ip), vehicle: Klucel (hydroxypropylcellulose) (HPC) 101 % of control
